Results: ChEMBL document CHEMBL5131384, “Design, synthesis, and biological evaluation of indole-based hydroxamic acid derivatives as histone deacetylase inhibitors” (Eur J Med Chem, 2022)

Columns and labels:
HCT-116 = test: Antiproliferative activity against human HCT-116 cells assessed as reduction in cell viability incubated for 72 hrs by WST-8 assay; format: functional, cell-based; details: HCT-116, 72 h
SGC-7901 = test: Antiproliferative activity against human SGC-7901 cells assessed as reduction in cell viability incubated for 72 hrs by WST-8 assay; format: functional, cell-based; details: SGC-7901, 72 h
A549 = test: Antiproliferative activity against human A549 cells assessed as reduction in cell viability incubated for 72 hrs by WST-8 assay; format: functional, cell-based; details: A549, 72 h
Histone deacetylase 1 = Histone deacetylase 1 (Homo sapiens, UniProt Q13547); test: Inhibition of HDAC1 (unknown origin) using Boc-Lys(Ac)-AMC as substrate incubated for 60 mins by fluorescence plate reader assay
Histone deacetylase 1, sequence (Q13547 whole entry): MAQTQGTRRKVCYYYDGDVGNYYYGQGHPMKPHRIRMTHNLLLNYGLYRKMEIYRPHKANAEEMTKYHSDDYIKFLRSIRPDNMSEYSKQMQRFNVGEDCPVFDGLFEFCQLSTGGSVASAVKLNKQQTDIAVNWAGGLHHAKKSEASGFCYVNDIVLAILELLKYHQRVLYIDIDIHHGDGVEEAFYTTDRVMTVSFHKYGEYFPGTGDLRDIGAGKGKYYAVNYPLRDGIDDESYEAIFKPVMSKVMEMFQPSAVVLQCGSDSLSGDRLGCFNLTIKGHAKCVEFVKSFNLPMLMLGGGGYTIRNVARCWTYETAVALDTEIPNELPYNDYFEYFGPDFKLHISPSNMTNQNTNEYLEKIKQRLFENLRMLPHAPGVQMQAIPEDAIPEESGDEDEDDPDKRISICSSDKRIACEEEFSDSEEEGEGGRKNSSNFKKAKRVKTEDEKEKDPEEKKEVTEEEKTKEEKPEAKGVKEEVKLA

[1] = biological target: T1, Protein deacetylase HDAC6 (Homo sapiens, UniProt Q9UBN7); test: Inhibition of HDAC6 (unknown origin) using Boc-Lys(Ac)-AMC as substrate incubated for 60 mins by fluorescence plate reader assay
T1 sequence (Q9UBN7 whole entry): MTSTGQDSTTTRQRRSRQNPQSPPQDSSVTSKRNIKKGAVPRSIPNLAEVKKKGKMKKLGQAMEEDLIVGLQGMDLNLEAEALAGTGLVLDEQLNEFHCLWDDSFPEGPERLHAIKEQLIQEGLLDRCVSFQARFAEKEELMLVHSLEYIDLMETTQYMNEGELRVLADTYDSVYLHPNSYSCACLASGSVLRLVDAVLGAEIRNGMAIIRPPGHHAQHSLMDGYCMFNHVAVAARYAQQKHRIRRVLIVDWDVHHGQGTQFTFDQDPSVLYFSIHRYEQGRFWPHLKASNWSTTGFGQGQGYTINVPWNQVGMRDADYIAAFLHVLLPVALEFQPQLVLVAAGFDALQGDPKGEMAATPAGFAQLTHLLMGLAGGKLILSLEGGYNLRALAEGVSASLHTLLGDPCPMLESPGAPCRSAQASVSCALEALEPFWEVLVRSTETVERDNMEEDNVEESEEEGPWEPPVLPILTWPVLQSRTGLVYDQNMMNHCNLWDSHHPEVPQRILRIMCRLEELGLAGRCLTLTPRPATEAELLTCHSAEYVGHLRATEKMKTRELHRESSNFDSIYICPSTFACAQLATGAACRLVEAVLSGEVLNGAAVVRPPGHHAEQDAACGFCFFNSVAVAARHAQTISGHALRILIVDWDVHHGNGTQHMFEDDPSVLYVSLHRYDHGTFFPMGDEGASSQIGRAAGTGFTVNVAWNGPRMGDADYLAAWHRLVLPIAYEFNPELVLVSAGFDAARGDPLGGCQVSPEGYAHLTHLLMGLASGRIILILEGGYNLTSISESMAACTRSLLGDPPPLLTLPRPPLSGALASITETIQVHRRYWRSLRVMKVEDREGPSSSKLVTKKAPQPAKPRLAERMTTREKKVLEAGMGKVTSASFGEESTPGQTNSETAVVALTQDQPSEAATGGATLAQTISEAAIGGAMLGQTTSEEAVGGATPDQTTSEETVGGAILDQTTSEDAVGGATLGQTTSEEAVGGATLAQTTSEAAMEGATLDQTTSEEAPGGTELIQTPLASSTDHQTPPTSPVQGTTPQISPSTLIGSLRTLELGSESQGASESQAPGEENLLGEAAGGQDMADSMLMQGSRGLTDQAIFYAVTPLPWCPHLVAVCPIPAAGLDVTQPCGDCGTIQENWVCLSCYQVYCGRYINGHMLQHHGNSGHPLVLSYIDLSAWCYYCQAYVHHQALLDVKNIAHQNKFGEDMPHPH

HL-60 = test: Antiproliferative activity against human HL-60 cells assessed as reduction in cell viability incubated for 72 hrs by WST-8 assay; format: functional, cell-based; details: HL-60, 72 h
MDA-MB-231 = test: Antiproliferative activity against human MDA-MB-231 cells assessed as reduction in cell viability incubated for 72 hrs by WST-8 assay; format: functional, cell-based; details: MDA-MB-231, 72 h

Row | SMILES | IC50 (HCT-116) | IC50 (SGC-7901) | IC50 (A549) | IC50 (Histone deacetylase 1) | IC50 [1] | IC50 (HL-60) | IC50 (MDA-MB-231)
1 | O=C(CCCCCCn1cc(C(=O)NC23CC4CC(CC(C4)C2)C3)c2ccccc21)NO | 45 µM | 14.7 µM | > 100 µM | 0.00116 µM | 0.00192 µM | 1.05 µM | 20.8 µM
2 | O=C(CCCCn1cc(C(=O)NC2C3CC4CC(C3)CC2C4)c2ccccc21)NO (centres undefined) | – | – | – | 0.0536 µM | 0.0399 µM | – | –
3 | O=C(CCCCCCn1cc(C(=O)NC2CCCCCC2)c2ccccc21)NO | – | – | – | 0.002 µM | 0.00211 µM | – | –
4 | O=C(NC1C2CC3CC(C2)CC1C3)c1cn(CCCCCCS)c2ccccc12 (centres undefined) | – | – | – | 0.169 µM | 0.019 µM | – | –
5 | O=C(CCCCCCn1cc(C(=O)Nc2ccc(Cl)cc2Cl)c2ccccc21)NO | 4.5 µM | 2.59 µM | 47 µM | 0.00253 µM | 0.00373 µM | 10.5 µM | 16.2 µM
6 | O=C(CCCCCCn1cc(C(=O)NC2CCCCCCC2)c2ccccc21)NO | > 100 µM | 67 µM | > 100 µM | 0.00131 µM | 0.0018 µM | 21.5 µM | > 100 µM
7 | O=C(CCCCCCn1c(C(=O)NC2C3CC4CC(C3)CC2C4)nc2ccccc21)NO (centres undefined) | – | – | – | 0.00168 µM | 0.00525 µM | – | –
8 | O=C(CCCCCCn1c(C(=O)NC2C3CC4CC(C3)CC2C4)cc2cc(Cl)ccc21)NO (centres undefined) | – | – | – | 0.00216 µM | 0.00684 µM | – | –
9 | O=C(CCCCCCn1nc(C(=O)NC2C3CC4CC(C3)CC2C4)c2ccccc21)NO (centres undefined) | – | – | – | 0.00296 µM | 0.00272 µM | – | –
10 | O=C(NC1C2CC3CC(C2)CC1C3)c1cn(CCCCCCCS)c2ccccc12 (centres undefined) | – | – | – | 0.188 µM | 0.232 µM | – | –
11 | O=C(/C=C/c1ccc(Cn2cc(C(=O)NC3C4CC5CC(C4)CC3C5)c3ccccc32)cc1)NO (centres undefined) | – | – | – | 0.143 µM | 0.0733 µM | – | –
12 | O=C(CCCCCCn1cc(C(=O)NCc2ccc(Cl)cc2)c2ccccc21)NO | > 100 µM | > 100 µM | > 100 µM | 0.00231 µM | 0.00156 µM | 72.9 µM | > 100 µM
